Tests used:
[1] = system: male Hilltop ICR-derived mice; assay: Maximal Electroshock Test in Mice; type: in vivo; conditions: intraperitoneally 15 minutes prior to transcorneal maximal electroshock (50 milliamps, 0.2 seconds), antagonizing tonic extension, in parentheses 95% confidence limits; for ED50: Mus musculus, ip, 0.25 h
Protocol: Maximal Electroshock Test in Mice
This test was performed in the standard manner, essentially as described by Swinyard et al., J. Pharm.
Groups of 10 male Hilltop ICR-derived mice weighing 20-30 grams were dosed intraperitoneally with a solution or suspension of drug in saline 15 minutes prior to a transcorneal maximal electroshock (50 milliamps, 0.2 seconds).

[2] = lethalities in mice after a single intraperitoneal dose; conditions: mouse, in vivo, ip, single dose intraperitoneally, lethalities determined after five days, doses 1-1,000 mg/kg
Protocol: Groups of 3 male ICR derived mice weighing 18-24 grams were given a single dose of compound intraperitoneally. The following doses were employed: 1, 3, 10, 30, 100, 300 or 1,000 mg/kg. After five days lethalities were determined.

Row | SMILES | ED50 [1] [mg/kg] | LD50 at 120 h [2] [mg/kg] | ED50 (95% confidence limits) [1]
1 | CC1(C)COC(Cn2ccnc2)(c2ccc3ccccc3c2)OC1 [1-[2,2-(2,2-dimethyl-1,3-propylenedioxy)-2-(2-naphthyl)ethyl]imidazole] | 26 |  | 
2 | c1ccc2cc(C3(Cn4ccnc4)OCCO3)ccc2c1 [1-[2,2-ethylenedioxy-2-(2-naphthyl)ethyl]imidazole] | 12 | 100 to 300 | 
3 | OC(Cn1ccnc1)c1cccc2ccccc12 (stereo not drawn) [1-[2-hydroxy-2-(1-naphthyl)ethyl]imidazole] | 37 | 300 to 1000 | 
4 | CCSC(Cn1ccnc1)(SCC)c1ccc2ccccc2c1 [1-[2,2-bis(ethylthio)-2-(2-naphthyl)ethyl]imidazole] | 35 |  | 
5 | CC1CSC(Cn2ccnc2)(c2ccc3ccccc3c2)S1.Cl (stereo not drawn) [1-[2,2-(1,2-propylenedithio)-2-(2-naphthyl)ethyl]imidazole hydrochloride] |  |  | 65 (55-73) mg/kg
6 | OC(Cn1ccnc1)c1ccc2ccccc2c1 (stereo not drawn) [1-[2-hydroxy-2-(2-naphthyl)ethyl]imidazole] | 74 | 300 to 1000 | 
7 | O=C(Cn1ccnc1)c1cccc2ccccc12 [1-(1-naphthoylmethyl)imidazole] | ~60 | 100 to 300 | 
8 | c1ccc2cc(C3(Cn4ccnc4)SCCS3)ccc2c1 [1-[2,2-ethylenedithio-2-(2-naphthyl)ethyl]imidazole] | 26 |  | 
9 | CC1CCOC(Cn2ccnc2)(c2ccc3ccccc3c2)O1 (stereo not drawn) [1-[2,2-(1-methyl-1,3-propylenedioxy)-2-(2-naphthyl)ethyl]imidazole] | 19 |  | 
10 | O=C(Cn1ccnc1)c1ccc2ccccc2c1 [1-(2-naphthoylmethyl)imidazole] | 23 | 100 to 300 | 
11 | c1ccc2cc(C3(Cn4ccnc4)OCCCO3)ccc2c1 [1-[2,2-(1,3-propylenedioxy)-2-(2-naphthyl)ethyl]imidazole] | 17 |  | 
12 | CSC(Cn1ccnc1)(SC)c1ccc2ccccc2c1 [1-[2,2-bis(methylthio)-2-(2-naphthyl)ethyl]imidazole] | 32 |  | 
13 | c1ccc2c(C3(Cn4ccnc4)OCCO3)cccc2c1 [1-[2,2-ethylenedioxy-2-(1-naphthyl)ethyl]imidazole] | 19 |  | 

Reference: patent US4150153A, “1-(Naphthylethyl)imidazole derivatives” (Syntex (U.S.A.) Inc., priority 1977, dated 1979)
